Targets include Mu-type opioid receptor (Homo sapiens, UniProt P35372); D(2) dopamine receptor (Rattus norvegicus, UniProt P61169); Vasopressin V2 receptor (Homo sapiens, UniProt P30518).
Experiment [1] deals with Sodium-dependent noradrenaline transporter (Homo sapiens, UniProt P23975).
Experiment [2] has as its target T1, Alpha-1A adrenergic receptor (Homo sapiens, UniProt P35348).
T1 sequence (P35348 whole entry): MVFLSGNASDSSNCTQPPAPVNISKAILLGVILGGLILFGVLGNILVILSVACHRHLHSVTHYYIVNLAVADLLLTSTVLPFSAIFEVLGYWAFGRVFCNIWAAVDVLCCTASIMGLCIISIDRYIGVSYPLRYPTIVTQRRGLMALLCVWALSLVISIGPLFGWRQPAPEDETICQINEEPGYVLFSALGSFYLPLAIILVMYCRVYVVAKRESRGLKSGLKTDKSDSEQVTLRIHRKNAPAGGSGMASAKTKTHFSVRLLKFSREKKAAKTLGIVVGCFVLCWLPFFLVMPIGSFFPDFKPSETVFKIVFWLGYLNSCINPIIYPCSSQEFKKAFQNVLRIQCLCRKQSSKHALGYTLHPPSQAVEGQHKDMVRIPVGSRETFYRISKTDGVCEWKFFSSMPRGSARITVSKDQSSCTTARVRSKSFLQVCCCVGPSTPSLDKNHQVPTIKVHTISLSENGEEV

Experiment [3] deals with T2, Muscarinic acetylcholine receptor M1 (Homo sapiens, UniProt P11229).
T2 sequence (P11229 whole entry): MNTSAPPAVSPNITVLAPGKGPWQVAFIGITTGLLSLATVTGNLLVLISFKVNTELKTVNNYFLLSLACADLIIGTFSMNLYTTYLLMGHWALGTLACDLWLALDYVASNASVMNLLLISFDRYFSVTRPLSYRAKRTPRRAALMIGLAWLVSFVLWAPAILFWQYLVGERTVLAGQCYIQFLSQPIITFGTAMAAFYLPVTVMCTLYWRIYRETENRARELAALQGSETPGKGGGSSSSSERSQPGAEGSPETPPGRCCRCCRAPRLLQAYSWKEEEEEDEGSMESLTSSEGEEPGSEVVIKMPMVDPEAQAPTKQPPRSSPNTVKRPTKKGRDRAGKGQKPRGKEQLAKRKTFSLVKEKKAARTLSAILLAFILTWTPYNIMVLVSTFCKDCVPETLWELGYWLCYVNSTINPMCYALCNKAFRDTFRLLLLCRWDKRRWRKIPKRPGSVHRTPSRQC

The next experiment has as its target T3, D(4) dopamine receptor (Rattus norvegicus, UniProt P30729).
T3 sequence (P30729 whole entry): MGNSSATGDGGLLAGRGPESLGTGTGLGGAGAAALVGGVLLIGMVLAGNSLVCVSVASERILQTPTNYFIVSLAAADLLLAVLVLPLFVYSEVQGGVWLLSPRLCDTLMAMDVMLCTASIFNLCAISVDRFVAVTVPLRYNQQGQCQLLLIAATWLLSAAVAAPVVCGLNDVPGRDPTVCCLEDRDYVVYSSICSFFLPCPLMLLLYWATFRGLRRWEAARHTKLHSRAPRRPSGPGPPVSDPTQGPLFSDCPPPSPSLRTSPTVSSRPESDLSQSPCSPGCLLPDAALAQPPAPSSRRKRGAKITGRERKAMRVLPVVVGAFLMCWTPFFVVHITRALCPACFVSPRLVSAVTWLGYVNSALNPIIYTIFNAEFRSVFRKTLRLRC

Experiment [4] has as its target Glutamate receptor ionotropic, NMDA 1 (Rattus norvegicus, UniProt P35439).
In experiment [5] the target is T4, 5-hydroxytryptamine receptor 2C (Rattus norvegicus, UniProt P08909).
T4 sequence (P08909 whole entry): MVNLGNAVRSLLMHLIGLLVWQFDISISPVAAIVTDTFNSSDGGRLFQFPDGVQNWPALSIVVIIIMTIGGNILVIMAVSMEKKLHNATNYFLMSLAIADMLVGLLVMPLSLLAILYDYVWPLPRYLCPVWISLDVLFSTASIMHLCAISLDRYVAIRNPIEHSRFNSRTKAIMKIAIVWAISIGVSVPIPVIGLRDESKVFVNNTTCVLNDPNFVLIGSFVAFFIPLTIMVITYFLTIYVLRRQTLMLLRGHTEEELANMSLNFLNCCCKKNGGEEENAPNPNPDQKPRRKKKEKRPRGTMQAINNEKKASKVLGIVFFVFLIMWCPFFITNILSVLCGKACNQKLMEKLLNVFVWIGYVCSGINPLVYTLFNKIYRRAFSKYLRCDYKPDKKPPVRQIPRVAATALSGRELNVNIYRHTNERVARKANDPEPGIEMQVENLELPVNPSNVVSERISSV

Experiment [6] concerns the target Gamma-aminobutyric acid receptor subunit alpha-1 (Rattus norvegicus, UniProt P62813).
The target of experiment [7] is Delta-type opioid receptor (Sus scrofa, UniProt P79291).
In experiment [8] the target is Sodium-dependent serotonin transporter (Homo sapiens, UniProt P31645).

In BindingDB's records for doi:10.1007/s00213-002-1073-7 (WestfÄLische Wilhelms-Universit&Auml, 2002) one finds Ki data, which are given here for 6 molecules.

Sequence of Mu-type opioid receptor (P35372 whole entry): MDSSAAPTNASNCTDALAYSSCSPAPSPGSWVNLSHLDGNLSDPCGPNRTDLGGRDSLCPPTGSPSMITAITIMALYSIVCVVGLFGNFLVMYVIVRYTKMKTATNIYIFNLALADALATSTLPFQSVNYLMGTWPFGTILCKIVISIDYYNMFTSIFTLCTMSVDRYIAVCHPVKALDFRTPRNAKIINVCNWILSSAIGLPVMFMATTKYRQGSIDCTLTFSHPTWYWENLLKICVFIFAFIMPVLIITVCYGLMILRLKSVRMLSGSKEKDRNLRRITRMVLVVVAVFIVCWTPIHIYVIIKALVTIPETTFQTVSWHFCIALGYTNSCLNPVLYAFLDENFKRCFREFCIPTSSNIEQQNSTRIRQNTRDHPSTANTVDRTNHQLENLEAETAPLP
Sequence of Sodium-dependent serotonin transporter (P31645 whole entry): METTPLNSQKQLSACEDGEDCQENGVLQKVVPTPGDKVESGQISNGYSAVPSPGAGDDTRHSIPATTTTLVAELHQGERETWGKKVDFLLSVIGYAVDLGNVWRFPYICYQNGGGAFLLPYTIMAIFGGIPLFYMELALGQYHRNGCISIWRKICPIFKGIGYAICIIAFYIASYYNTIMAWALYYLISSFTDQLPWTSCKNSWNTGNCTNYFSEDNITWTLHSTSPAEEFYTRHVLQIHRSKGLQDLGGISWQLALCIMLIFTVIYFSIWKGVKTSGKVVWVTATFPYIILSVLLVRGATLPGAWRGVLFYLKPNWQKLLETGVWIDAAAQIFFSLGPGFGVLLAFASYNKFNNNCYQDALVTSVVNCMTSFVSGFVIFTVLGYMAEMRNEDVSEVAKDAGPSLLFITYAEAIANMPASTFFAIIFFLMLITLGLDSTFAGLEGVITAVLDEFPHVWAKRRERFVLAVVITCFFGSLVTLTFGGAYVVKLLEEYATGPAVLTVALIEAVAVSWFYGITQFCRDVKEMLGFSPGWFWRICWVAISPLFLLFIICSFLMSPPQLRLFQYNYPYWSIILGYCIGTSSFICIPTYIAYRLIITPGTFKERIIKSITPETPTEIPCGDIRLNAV
Sequence of Delta-type opioid receptor (P79291 whole entry): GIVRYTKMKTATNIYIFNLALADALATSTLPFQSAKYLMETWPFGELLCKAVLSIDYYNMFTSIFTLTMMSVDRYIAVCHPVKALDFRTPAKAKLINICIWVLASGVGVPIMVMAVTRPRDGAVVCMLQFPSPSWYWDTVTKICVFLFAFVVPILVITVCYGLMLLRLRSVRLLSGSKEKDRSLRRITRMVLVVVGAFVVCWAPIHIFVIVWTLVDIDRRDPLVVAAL
Sequence of Vasopressin V2 receptor (P30518 whole entry): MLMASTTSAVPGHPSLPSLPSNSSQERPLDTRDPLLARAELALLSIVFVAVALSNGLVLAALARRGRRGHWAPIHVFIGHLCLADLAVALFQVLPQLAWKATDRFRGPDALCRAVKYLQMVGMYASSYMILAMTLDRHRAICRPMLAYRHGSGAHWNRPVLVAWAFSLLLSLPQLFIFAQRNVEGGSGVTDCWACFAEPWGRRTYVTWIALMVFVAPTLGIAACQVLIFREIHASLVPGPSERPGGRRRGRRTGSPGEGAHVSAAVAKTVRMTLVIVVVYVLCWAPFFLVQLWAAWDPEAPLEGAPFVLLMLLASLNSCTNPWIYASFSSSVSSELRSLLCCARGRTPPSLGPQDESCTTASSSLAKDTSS
Sequence of D(2) dopamine receptor (P61169 whole entry): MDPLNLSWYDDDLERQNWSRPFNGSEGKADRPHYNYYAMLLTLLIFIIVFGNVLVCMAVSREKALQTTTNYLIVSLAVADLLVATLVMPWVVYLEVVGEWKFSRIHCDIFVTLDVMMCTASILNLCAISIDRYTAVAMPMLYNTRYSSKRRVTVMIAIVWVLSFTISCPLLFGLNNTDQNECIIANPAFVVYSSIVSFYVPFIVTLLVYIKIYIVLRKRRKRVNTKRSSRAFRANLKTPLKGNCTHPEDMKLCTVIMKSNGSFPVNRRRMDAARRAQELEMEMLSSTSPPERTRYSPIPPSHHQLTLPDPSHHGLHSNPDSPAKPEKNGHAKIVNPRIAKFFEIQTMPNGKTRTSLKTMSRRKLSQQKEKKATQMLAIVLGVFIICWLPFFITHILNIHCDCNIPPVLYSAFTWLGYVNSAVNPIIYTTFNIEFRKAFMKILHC
Sequence of Sodium-dependent noradrenaline transporter (P23975 whole entry): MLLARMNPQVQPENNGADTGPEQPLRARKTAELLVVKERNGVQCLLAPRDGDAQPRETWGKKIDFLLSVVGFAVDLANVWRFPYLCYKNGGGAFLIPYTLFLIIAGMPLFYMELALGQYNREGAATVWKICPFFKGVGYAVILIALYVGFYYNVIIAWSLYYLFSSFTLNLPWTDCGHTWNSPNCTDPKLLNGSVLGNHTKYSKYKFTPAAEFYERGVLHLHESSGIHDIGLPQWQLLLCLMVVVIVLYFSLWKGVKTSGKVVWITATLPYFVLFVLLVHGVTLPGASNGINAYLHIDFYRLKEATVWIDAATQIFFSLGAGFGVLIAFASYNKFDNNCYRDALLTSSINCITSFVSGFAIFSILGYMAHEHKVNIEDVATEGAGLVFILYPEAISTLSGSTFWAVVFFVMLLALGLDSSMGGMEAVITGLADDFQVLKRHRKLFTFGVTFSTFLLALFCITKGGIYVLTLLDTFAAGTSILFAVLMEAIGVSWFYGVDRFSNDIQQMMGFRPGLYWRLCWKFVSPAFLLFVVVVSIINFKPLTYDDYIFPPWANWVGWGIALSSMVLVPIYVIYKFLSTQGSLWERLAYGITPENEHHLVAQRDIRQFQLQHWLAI
Sequence of Gamma-aminobutyric acid receptor subunit alpha-1 (P62813 whole entry): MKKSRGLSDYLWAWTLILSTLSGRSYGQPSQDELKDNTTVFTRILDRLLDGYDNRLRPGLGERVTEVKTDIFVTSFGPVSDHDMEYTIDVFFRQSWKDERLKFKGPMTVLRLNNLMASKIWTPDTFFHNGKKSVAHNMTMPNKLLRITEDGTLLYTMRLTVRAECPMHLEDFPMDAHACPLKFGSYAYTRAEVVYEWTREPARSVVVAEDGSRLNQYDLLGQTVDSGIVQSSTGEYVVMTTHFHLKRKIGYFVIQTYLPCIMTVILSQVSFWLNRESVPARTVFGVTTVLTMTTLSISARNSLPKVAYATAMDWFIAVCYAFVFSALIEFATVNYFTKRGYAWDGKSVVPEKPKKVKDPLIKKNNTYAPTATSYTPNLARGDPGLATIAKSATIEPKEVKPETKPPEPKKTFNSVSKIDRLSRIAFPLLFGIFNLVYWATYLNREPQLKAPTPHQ

For the molecule `O=c1cc(O)cc2oc(-c3ccc(O)c(-c4c(O)cc(O)c5c(=O)cc(-c6ccc(O)cc6)oc45)c3)cc(O)c1-2`, the Ki (on Mu-type opioid receptor; in experiment [1]; on D(2) dopamine receptor; in experiment [2]; in [3]; on D(4) dopamine receptor) was over 10 µM each time. Further, the inhibition constant (Ki) (in [4]; at Vasopressin V2 receptor) was over 10 µM throughout.

For `CC(C)=CCC[C@]1(C)[C@@H](CC=C(C)C)C[C@]2(CC=C(C)C)C(=O)C(CC=C(C)C)C(=O)[C@]1(C(=O)C(C)C)C2=O` (stereo not given in full), the inhibitory constant (Ki) (at Mu-type opioid receptor; in experiment [1]; on D(2) dopamine receptor; in experiment [2]; in experiment [5]; in experiment [3]) was over 10 µM in each case. Moreover, the Ki (in experiment [6]; at D(4) dopamine receptor; in experiment [4]; in experiment [7]; at Vasopressin V2 receptor) was over 10 µM each time.

`C[C@@H]1O[C@@H](Oc2c(-c3ccc(O)c(O)c3)oc3cc(O)cc(=O)c-3c2O)[C@H](O)[C@H](O)[C@H]1O`: the inhibition constant (Ki) (on Mu-type opioid receptor; in experiment [8]; in [1]; on D(2) dopamine receptor; in [2]; in [5]) was over 10 µM throughout. The Ki (in [3]; in experiment [6]; on D(4) dopamine receptor; in [4]; in experiment [7]; at Vasopressin V2 receptor) was over 10 µM in each case.

As for `O=c1c(O)c(-c2ccc(O)c(O)c2)oc2cc(O)cc(O)c12` [2-(3,4-dihydroxyphenyl)-3,5,7-trihydroxy-chromone;hydrate], the Ki (as a rule, the dissociation constant of the complex between target and ligand, obtained from inhibition or displacement) on D(2) dopamine receptor was over 10 µM; in experiment [5] it was over 10 µM; in [3], over 10 µM; on D(4) dopamine receptor, 7.85 µM; in [7], over 10 µM.

In the case of `C[C@@H]1O[C@@H](OC[C@H]2O[C@@H](Oc3c(-c4ccc(O)c(O)c4)oc4cc(O)cc(O)c4c3=O)[C@H](O)[C@@H](O)[C@@H]2O)[C@H](O)[C@H](O)[C@H]1O` [3-Rhamnoglucosylquercetin], the inhibitory constant (Ki) (at Mu-type opioid receptor; in [8]; in experiment [1]; at D(2) dopamine receptor; in experiment [2]; in experiment [5]) was over 10 µM each time. Also, the Ki (in experiment [3]; in experiment [6]; at D(4) dopamine receptor; in experiment [4]; in experiment [7]; on Vasopressin V2 receptor) was over 10 µM throughout.

`O=c1cc(O)cc2oc(-c3ccc(O)c(O)c3)c(OC3OC(CO)C(O)C(O)C3O)c(O)c1-2` (stereo not given) [NSC_5318390]: the Ki (at Mu-type opioid receptor; in experiment [8]; in experiment [1]; at D(2) dopamine receptor; in experiment [2]; in experiment [5]) was over 10 µM each time. Also, the inhibition constant (Ki) (in [3]; in experiment [6]; on D(4) dopamine receptor; in experiment [4]; in experiment [7]; on Vasopressin V2 receptor) was over 10 µM throughout.
